Test results: patent US8426342B2, “Method for weed control in lawn” (priority 2008, dated 2013)

Legend:
[1] = test system: Dagitaria sanguinales; experiment: Effectivity testing against weed plants ex. 5.1, Abbott %; type: in vivo, Digitaria sanguinales
Excerpt: (§1) Each plot was divided by different pre-treatments 1 week before application of the trial treatments: • A) Pre-treatment with glyphosate-isopropylammonium allowing to evaluate in this section the pre-emergence effect against weeds. • B) No pre-treatment, present winter annual weeds are received a post-emergence application.
(§2) 2005, applied on dormant turf in winter
Effectivity was rated in percent (%) herbicidal effect compared with untreated control according to the method of Abbott according to the formula [(X−Y)/X]100 where X is the absolute level/scoring of the control plants, Y is the level/scoring of the treated plants. 100% efficacy means full control; 0% efficacy means no control of the weed; all ratings above 80% are usually acceptable.

[2] = test system: Cynodon dactylon (Bermuda grass); experiment: Phytotoxicity of the turf ex. 5.1, % injury vs untreated; type: in vivo; settings: 157 DAT
Excerpt: as §1, §2
Additionally, phytotoxicity of the turf was rated as percent (%) injury compared with untreated control.

[3] = test system: Trifolium repens; experiment: Effectivity testing against weed plants ex. 5.2, co-formulation/granules in tall fescue turf, early post for the weed, Abbott %; type: in vivo; settings: 50 g a.i./ha
Excerpt: A co-formulation containing a mixture compounds no. […] Granules were applied with a shaker can.
Turf grass species: Festuca arundinacea, variety (tall fescue grass)
Weed species: Trifolium repens
Location: Sports turf, North Carolina, USA
Plot size: 1.4 m^2 and 3 replicates per treatment
Application timing: 27 Mar. 2007, spring application, early post for the weed
Effectivity was rated in percent (%) herbicidal effect compared with untreated control according to the method of Abbott mentioned above (see 5.1). 100% efficacy means full control; 0% efficacy means no control of the weed; all ratings above 80% are usually acceptable.

Cc1ccc2c(c1)[C@H](Nc1nc(N)nc([C@@H](C)F)n1)[C@@H](C)C2 (stereo in doubt) [(A21)/(A22), indaziflam]
Herbicidal effect (%) on Dagitaria sanguinales, Pre-emergence application after pre-treatment ([1]; 25 g a.i./ha, 187 DAT): 100%
Herbicidal effect (%) on Dagitaria sanguinales, Pre-emergence application after pre-treatment ([1]; 25 g a.i./ha, 207 DAT): 100%
Herbicidal effect (%) on Dagitaria sanguinales, Pre-emergence application after pre-treatment ([1]; 25 g a.i./ha, 234 DAT): 97%
Herbicidal effect (%) on Dagitaria sanguinales, Pre-emergence application after pre-treatment ([1]; 25 g a.i./ha, 259 DAT): 99%
Herbicidal effect (%) on Dagitaria sanguinales, Pre-emergence application after pre-treatment ([1]; 50 g a.i./ha, 187 DAT): 100%
Herbicidal effect (%) on Dagitaria sanguinales, Pre-emergence application after pre-treatment ([1]; 50 g a.i./ha, 207 DAT): 100%
Herbicidal effect (%) on Dagitaria sanguinales, Pre-emergence application after pre-treatment ([1]; 50 g a.i./ha, 234 DAT): 100%
Herbicidal effect (%) on Dagitaria sanguinales, Pre-emergence application after pre-treatment ([1]; 50 g a.i./ha, 259 DAT): 100%
Herbicidal effect (%) on Dagitaria sanguinales, Pre-emergence application after pre-treatment ([1]; 75 g a.i./ha, 187 DAT): 100%
Herbicidal effect (%) on Dagitaria sanguinales, Pre-emergence application after pre-treatment ([1]; 75 g a.i./ha, 207 DAT): 100%
Herbicidal effect (%) on Dagitaria sanguinales, Pre-emergence application after pre-treatment ([1]; 75 g a.i./ha, 234 DAT): 100%
Herbicidal effect (%) on Dagitaria sanguinales, Pre-emergence application after pre-treatment ([1]; 75 g a.i./ha, 259 DAT): 100%
Phytotoxicity (%) on Turf ([2]; 25 g a.i./ha, section with glyphosate pre-treatment (Table 20)): 0%
Phytotoxicity (%) on Turf ([2]; 25 g a.i./ha, section without pre-treatment (Table 21)): 0%
Phytotoxicity (%) on Turf ([2]; 50 g a.i./ha, section with glyphosate pre-treatment (Table 20)): 0%
Phytotoxicity (%) on Turf ([2]; 50 g a.i./ha, section without pre-treatment (Table 21)): 0%
Phytotoxicity (%) on Turf ([2]; 75 g a.i./ha, section with glyphosate pre-treatment (Table 20)): 0%
Phytotoxicity (%) on Turf ([2]; 75 g a.i./ha, section without pre-treatment (Table 21)): 0%
Herbicidal effect (%) on Trifolium repens ([3]; 30 DAT): 60%
Herbicidal effect (%) on Trifolium repens ([3]; 381 DAT): 90%
